Laboratory results as given in publication PMC6155021, “Ancient and modern anticonvulsants act synergistically in a KCNQ potassium channel binding pocket” (Nature Communications, 2018).

Tests used:
[1] = tested on: pentylene tetrazole-induced seizures; test: PTZ chemoconvulsant assay; type: in vivo, mouse; conditions: mice
Source text: We compared anticonvulsant activities of test compounds in male C57BL/6 mice (Charles River) aged 2–3 months. Mice were housed and used according to the recommendations in the Guide for the Care and Use of Laboratory Animals of the National Institutes of Health (NIH Publication, 8th edition, 2011). The study protocol was approved by the Institutional Animal Care and Use Committee of University of California, Irvine, which confirmed that all relevant ethical regulations were adhered to. Chemicals were sourced from Sigma (St. Louis, MO, USA) . A pentylene tetrazole (PTZ) chemoconvulsant assay was used[54]. […] Following the PTZ injection, mice were caged individually and an observer (GWA) blinded to the drug used recorded, over 20 min, clonic and tonic seizure incidence, and seizure-related mortality.
All values are expressed as mean ± SEM. Chi-squared analysis was used to compare seizure-related mortality in mice. One-way ANOVA was applied for all other tests; if multiple comparisons were performed, a post-hoc Tukey’s HSD test was performed following ANOVA. All p-values were two-sided. Statistical significance was defined as p < 0.05.

[2] = target: KCNQ1 (Homo sapiens, UniProt P51787); design: method as in PMID 27997884; conditions: cited from earlier work
[3] = target: KCNQ2/3 channels (Homo sapiens, UniProt O43525+O43526); test: Relative ion permeability of KCNQ2/3 channels (pseudo-bi-ionic substitution, GRb/GK); type: cell-based; conditions: MTX 30 µM
Method: For relative permeability studies, currents were recorded in response to a single pulse to +40 mV for 5 s, followed by pulses between −80 mV and +40 mV at 20 mV intervals, from a holding potential of −80 mV, to yield a current–voltage relationship. According to the Goldman–Hodgkin–Katz (GHK) voltage equation:2 Erev=RT∕FlnPKK^+O+PNaNaO+PClCli/PKK^+i+PNaNai+PClClo, where Erev is the absolute reversal potential and P is the permeability. This permits calculation of the relative permeability of each ion if concentrations on either side of the membrane are known. A modified version of this equation was used here to determine relative permeability of two ions in a system in which only the extracellular ion concentration was known. Thus, relative permeability of Rb^+, Cs^+, and Na^+ compared to K^+ ions was calculated for all channels by plotting the I/V relationships for each channel with each extracellular ion (100 mM) and comparing them to that with 100 mM extracellular K^+ ion to yield a change in reversal potential (ΔErev) for each ion compared to that of K^+. Permeability ratios for each ion compared to K^+ were then calculated as3 ΔErev=Erev,X-Erev,K=RT/zFlnPX/PK
For calculating Rb^+/K^+ permeability (Fig. 3g), tail currents were elicited by a single pulse to +40 mV, followed by a pulse at −80 mV, from a holding potential of −80 mV in 98 mM [K^+] and then 98 mM [Rb^+]. […]

KCNQ1, sequence (P51787 whole entry): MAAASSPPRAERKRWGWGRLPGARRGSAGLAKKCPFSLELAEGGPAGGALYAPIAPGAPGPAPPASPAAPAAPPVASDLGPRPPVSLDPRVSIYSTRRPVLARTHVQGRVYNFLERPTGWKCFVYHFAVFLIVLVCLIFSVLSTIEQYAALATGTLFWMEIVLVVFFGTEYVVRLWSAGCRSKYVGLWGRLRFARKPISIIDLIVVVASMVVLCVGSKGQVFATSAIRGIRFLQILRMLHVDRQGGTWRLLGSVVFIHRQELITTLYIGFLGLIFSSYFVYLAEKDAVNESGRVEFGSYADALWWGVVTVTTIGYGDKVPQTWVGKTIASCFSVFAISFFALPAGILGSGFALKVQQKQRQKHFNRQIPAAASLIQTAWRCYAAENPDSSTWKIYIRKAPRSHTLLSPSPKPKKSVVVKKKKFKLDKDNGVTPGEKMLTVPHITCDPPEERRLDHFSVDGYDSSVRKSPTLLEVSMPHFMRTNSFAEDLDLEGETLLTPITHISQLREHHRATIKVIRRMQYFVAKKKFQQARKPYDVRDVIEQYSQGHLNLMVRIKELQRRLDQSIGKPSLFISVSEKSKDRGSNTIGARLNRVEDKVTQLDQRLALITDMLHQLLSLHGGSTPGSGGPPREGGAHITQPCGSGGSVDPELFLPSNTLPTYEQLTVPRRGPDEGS

## CC(=O)c1c(O)c(C)c(O)c(Cc2c(O)c3c(c(C(=O)/C=C/c4ccccc4)c2O)OC(C)(C)C=C3)c1O [MTX, mallotoxin]
[1]; 10 mg/kg i.p. alone
  clonic seizure incidence: neither compound reduced clonic seizures alone
[1]; 20 mg/kg i.p., 30 min before 80 mg kg−1 PTZ
  clonic seizure incidence: halved
[1]; individually
  suppression of PTZ-induced tonic seizures: ineffective
[2]
  effect on KCNQ1: activated
[3]; KCNQ2/3, baseline 0.75 ± 0.10
  GRb/GK (ratio of Rb+ conductance to K+ conductance): 0.52 ± 0.06
[3]; 100 mM extracellular ion
  relative ion permeability of KCNQ2/3 compared to K+: increased relative permeability of KCNQ2/3 to Na^+ and Cs^+, and decreased permeability to Rb^+
